The test system of series [1] is neuron-rich cortical cell cultures. As to the kind of experiment: serum deprivation-induced neuronal cell apoptosis. The series is classed as cell-based, mouse. The following applies: 24 hr, 5 mM Li^+, 100 μM zVADfmk, 1 μM 2-hydroxy TTBA. As to the method: (B) Neuron-rich cortical cell cultures (DIV 7) were deprived of serum, alone or with addition of 100 μM zVADfmk, 1 μM 2-hydroxy TTBA, or 5 mM Li^+. Neuronal death was analyzed 24 hr later by counting viable neurons excluding trypan (mean±SEM, n=4). *, Significant difference from the relevant control (serum deprivation alone), p<0.05 using ANOVA and Student-Neuman-Keuls test. (C) Western blot analysis of FADD antibody following immunoprecipitation with Fas antibody in the same samples above.
Additional experiments were performed to examine if targeting both neuronal cell necrosis and apoptosis would result in synergic neuroprotection in […] transgenic mice. […] Neuronal cell apoptosis was induced by serum deprivation in neuron-rich cortical cell cultures as reported, which was prevented by addition of 5 mM Li^+ as well as zVADfmk, a broad spectrum inhibitor of caspases (FIG. 5B). […] Additional experiments were performed to examine if Li^+ would prevent Fas signaling pathway. […] This implies that 2-Hydroxy-TTBA and Li^+ blocks oxidative neuronal cell necrosis and apoptosis, respectively.

The subject of series [2] is Tg2576 transgenic mice. The experiment in a line: elevated plus maze in Tg2576 transgenic mice. The series is classed as in vivo, mouse. The following applies: 25 mg/kg/day for 5 months (9~14 months). As to the method:
14 month-old Tg2576 transgenic mice were fed chow alone, or containing 25 mg/kg/day of chemical 01, for 5 months (9˜14 months). After administration of 5 months, Elevated plus maze test was performed to evaluate the behavior improvement. Elevated plus maze has two open arms (30 cm×6 cm×0.5 cm) and two closed arms (30 cm×6 cm×15 cm), and also has 6 cm×6 cm of center platform. In Elevated plus maze test, mouse was carefully laid in the center with the head of the mouse toward open arm. The time that the mouse spent in the open arm was recorded for 5 minutes (mean±SEM, n=2).
(§1) 14 month-old Tg2576 transgenic mice were fed chow alone (saline only), or containing 25 mg/kg/day of chemical—01, for 5 months (9˜14 month).
The anxiety function was analyzed by elevated plus maze test. The time spent in the open arm was recorded in the elevated plus maze.

In another series the test system is G93A mouse. As to the kind of experiment: motor performance, onset and survival in G93A mouse (chemical 01). The series is classed as in vivo. As to the method: G93A (Glycine Alanine) mouse having similar pathophysiological characteristics with ALS human patient was used to evaluate therapeutic effect of drug in ALS (amyotrophic lateral sclerosis), one of main degenerative brain diseases. It was analyzed whether treatment with 5 mg/kg/day or 20 mg/kg/day of chemical 01 improved motor performance ability or not.
In PaGE test and Rotarod test, onset and mortality were analyzed for four mice per each group (FIGS. 13C-D). […] In survival ability, G93A mouse fed with chow only, G93A mouse treated with 5 mg/kg/day of chemical 01 and G93A mouse treated with 20 mg/kg/day of chemical 01 survived for 131.57 days, 153.13 days, and 150.73 days, respectively. Treatment with chemical 01 extended survival rate of G93A mouse (FIG. 13D).

Series [3] relates to APPswe/PS1deltaE9 double transgenic mice. As to the kind of experiment: Morris water maze in APPswe/PS1deltaE9 double transgenic mice. It counts as in vivo, mouse. The following applies: 25 mg/kg/day chemical 01 or 62.5 mg/kg/day ibuprofen for 14.5 months (3~17.5 months). As for the experimental part: After administration of 14.5 months, the cognitive function was analyzed by Morris water maze test like example 10-3-1 (mean±SEM, n=3-5).
(§2) 17.5 month-old APPswe/PS1deltaE9 double transgenic mice were fed chow alone (saline only), or containing 25 mg/kg/day of chemical—01, for […] (3˜17.5 month).
(§3) The cognitive function was analyzed by Morris water maze test. Mice ware trained to perform a hidden platform task in the Morris water maze. The latency to find the platform was recorded for each mouse.

Series [4] in a line: superoxide scavenging in test tube. It counts as biochemical. The following applies: read-out: superoxide scavenging effect (IC50 value). As for the experimental part:
In addition, scavenging effects of superoxide and hydroxyl radical in test tube were evaluated. Hydroxyl radical scavenging activities of 0.1 uM, 1 uM and 10 uM of chemical 01 were 13.35%, 33.33% and 71.72%, respectively.

Series [5] in a line: single-dose toxicity test. The following applies: mouse, in vivo; single dose. As to the method: Single-dose toxicity test of compounds showing good results in the above three efficacy tests were evaluated.
The test system of series [6] is APPswe/PS1deltaE9 double transgenic mice. As to the kind of experiment: open field activity in APPswe/PS1deltaE9 double transgenic mice. The series is classed as in vivo, mouse. The following applies: 25 mg/kg/day chemical 01 or 62.5 mg/kg/day ibuprofen for 14.5 months (3~17.5 months). As to the method: After administration of drug for 14.5 months, Open field activity test was performed to evaluate locomotor activity and exploratory behavior. 4×4 of scale marks were drawn in white acryl box having a size of 60 cm×60 cm×35 cm (width×length×height) to make sixteen squares. Four squares in the center became center zone and twelve squares around the center zone became peripary zone. Mice were laid into transparent acryl tube (diameter: about 3.5 inches) laid at the left corner of the acryl box for 30 seconds. After 30 seconds, acryl tube was removed to make mouse free. Experiment was once performed for each mouse for 5 minutes. The distance traveled in the open field was recorded (mean±SEM, n=3-5).
as §2
Open field activity was used to evaluate locomotor activity and exploratory behavior. The distance traveled in the open field was recorded and performance was analyzed after the testing took place.

Another series deals with G93A mice. The experiment in a line: inflammatory cytokine mRNA in lumbar segments of G93A mice (RT-PCR). It counts as in vivo, mouse. The following applies: 16 week-old G93A mice, 5 mg/kg/day or 20 mg/kg/day in chow. As for the experimental part: Lumbar segments of 16 week-old G93A mice fed with general chow only, and 16 week-old G93A mice fed with chow containing 5 mg/kg/day or 20 mg/kg/day of chemical 01 were extracted and their RNA were separated. The mRNA expression degrees of TNF-a and IL-16, cytokines inducing inflammation, were evaluated through RT-PCT.

Series [7] has as its system Tg2576 transgenic mice. The experiment in a line: Morris water maze in Tg2576 transgenic mice. It counts as in vivo, mouse. The following applies: 25 mg/kg/day for 5 months (9~14 months). As to the method: 14 month-old Tg2576 transgenic mice were fed chow alone, or containing 25 mg/kg/day of chemical 01, for 5 months (9˜14 months). After administration of 5 months, the cognitive function was analyzed by Morris water maze test. Training was performed 4 times a day (4 trials/day) for 5 days. If mouse stay on the platform for over 10 seconds, it is thought to be a success. After 5 days of experiments, the latency to find the platform was recorded and analyzed for each mouse (mean±SEM, n=2).
as §1, §3

A further series has as its system TNF-a. As to the kind of experiment: LPS-induced TNF-a in mesencephalic cultures. It counts as cell-based. Particulars: 5 ng/ml LPS; 0-100 uM; 3 hours. As for the experimental part: Mesencephalic nerve cell cultures were pre-treated with 5 ng/ml of LPS for 30 minutes to make a cull culture model of Parkinson's disease, and then 0-100 uM of chemical 01 were added. The level of NO was evaluated 24 hours after administration of chemical 01, and the level of TNF-a was evaluated 3 hours after administration of chemical 01 (mean±SEM, n=7-12 culture well/each group).

The values below come from patent US20120301551A1, “COMPOUNDS AND COMPOSITIONS FOR TREATING NEURONAL DEATH OR NEUROLOGICAL DYSFUNCTION” (Neurotech Pharmaceuticals Co., Ltd., priority 2005, published 2012).

Molecules are shown by their SMILES. Where two headings read alike, the source gives them in different places. Where only a bound is given, the exact number is not on record here.

On to `O=C(O)c1cc(NCc2c(F)c(F)c(C(F)(F)F)c(F)c2F)ccc1O` [2-Hydroxy-TTBA, 2-hydroxy-5-(2,3,5,6-tetrafluoro-4-trifluoromethyl-benzylamino)-benzoic acid], for which the “serum deprivation-induced neuronal cell apoptosis, effect in words” value is recorded as “not attenuated” in series [1] and “not” in series [1] (listed as 2-hydroxy TTBA).
Take `O=C(O)c1cc(NCCc2ccc(C(F)(F)F)cc2)ccc1O` [chemical 01, 2-Hydroxy-5-[2-(4-trifluoromethyl-phenyl)-ethylamino]-benzoic acid]: the entries for the “time spent in the open arm” value in the series with Tg2576 transgenic mice [2] and in the series on Tg2576 transgenic mice [2] (listed as chemical—01) were “decreased the time” and “spent less time”, respectively. Further, the survival in the series with G93A mouse (5 mg/kg/day) is given as 153.13 days; in the series with G93A mouse (20 mg/kg/day) it was 150.73 days. For the same compound, the onset in the series on G93A mouse (5 mg/kg/day or 20 mg/kg/day) was found to be 125.67 days. Besides, the “motor performance versus control fed with general chow only (Rotarod, PaGE)” value in the series with G93A mouse (5 or 20 mg/kg/day in chow, from 14 weeks to 17 weeks) is on record as “better motor performance”. Also, in series [3], the “escape latency / cognitive function (Morris water maze)” value is reported as “shorter”. Moreover, the IC50 in [4] (NADH/PMS system) is 26.1 µM; in series [4] (X/XO system), greater than 100 µM. For the same compound, the LD50 in series [5] is greater than 3000 mg/kg. In addition, in [6], the “open field activity (distance traveled)” value is “reduced significantly”. Besides, the “mRNA expression of TNF-a and IL-16, cytokines inducing inflammation” value in the series with G93A mice is on record as “effectively reduced”. The “escape latency (latency to find the platform)” value in the series on Tg2576 transgenic mice [7] is “shorter”. Moreover, the “increase of TNF-a caused by LPS” value with TNF-a is on record as “dose-dependent manner”.
